# Data: patent US6803367B2, “Substance for inducing apoptosis” (Takara Shuzo Co., Ltd., priority 1997, dated 2004)
# Experiments:
# Format in all cases: cell-based, human
# [1] = tested on: HL-60 cells; assay: Observation of apoptotic body in HL-60 cells under a microscope
# Description: (§1) To each of the wells of a 96-well microtiter plate was added 1000, 500, 250, 125, 62.5 or 31.3 μg/ml aqueous solution of imidazolylcyclopentenone obtained in Example 1-(2) or 10 μl of water as a control. HL-60 (ATCC CCL-240) was suspended in an RPMI 1640 medium containing 10% of fetal calf serum to make the concentration 5×10^4 cells/ml and each 90 μl thereof was placed in each well of the above-mentioned microtiter plate and incubated at 37° C. for 48 hours in the presence of 5% carbon dioxide. Incubation was conducted for four hours more after addition of 10 μl of a solution (5 mg/ml) of 3-(4,5-dimethylthiazol-2-yl)-2,5-diphenyltetrzolium bromide (MTT; manufactured by Sigma) in a phosphate-buffered saline solution and the state of growth of the cells was observed under a microscope. Further, 100 μl of 2-propanol containing 0.04N hydrochloric acid was added followed by stirring and an absorbance at 590 nm was measured.
# As a result of observation under a microscope, production of apoptotic body was confirmed.
# Main peaks and the fractions between them were collected and evaporated to dryness in vacuo, each of the fractions was diluted to an extent of 3- or 9-fold with water and their activity of growth inhibition of HL-60 cells was measured by the same way as in Example 3 except that 5 μl of the sample were added to each well and the incubation was conducted for 18 hours. […]
# [2] = tested on: HL-60 cells; assay: Growth inhibition of HL-60 cells (MTT, 96-well microtiter plate); details: for activity of growth inhibition of cancer cells: 5 μl per well, 18 hours incubation
# Description: as §1
# The non-adsorbed fraction of Example 4 was adjusted to pH 3 with HCl and heated at 121° C. for 1 hour. The resulting heat-treated solution was diluted with aseptic water to an extent of 2-, 4-, 8-, 16-, 32- or 64-fold and its activity of growth inhibition of HL-60 cells was measured by the same way as in Example 3.
# Main peaks and the fractions between them were collected and evaporated to dryness in vacuo, each of the fractions was diluted to an extent of 3- or 9-fold with water and their activity of growth inhibition of HL-60 cells was measured by the same way as in Example 3 except that 5 μl of the sample were added to each well and the incubation was conducted for 18 hours. […] Production of apoptotic body was confirmed as well.
# The growth inhibiting activity of a 1 mM aqueous solution of MC2 and a 350 μM aqueous solution of HMC2 obtained in Example 10 to HL-60 cells was measured by the same way as in Example 3.
# [3] = tested on: HL-60 cells; assay: Viable and dead cell counting of HL-60 cells by Trypan Blue staining
# Description: (§2) HL-60 cells (ATCC CCL240) which were incubated at 37° C. in an RPMI 1640 medium (manufactured by Nissui) containing 10% of fetal calf serum (manufactured by Gibco) treated at 56° C. for 30 minutes were suspended in the above medium to make the concentration 2.5×10^5 cells/4.5 ml. To this suspension was added 0.5 ml of 10 μM, 20 μM, 40 μM or 80 μM aqueous solution of S-1127 followed by incubating at 37° C. in the presence of 5% carbon dioxide gas for 15 hours or 39 hours.
# (§3) Incidentally, such a phenomenon was not observed in the water-added control section.
# In FIG. 31, ◯ indicates the case where 10 μM of S-1127 was added; Δ indicates the case where 20 μM of S-1127 was added; □ indicates the case where 40 μM of S-1127 was added; X indicates the case where 80 μM of S-1127 was added and ● indicates the control where water was added.
# [4] = tested on: HL-60 cells; assay: DNA fragmentation in HL-60 cells by agarose gel electrophoresis; details: after incubation for 15 hours; concentration of the aqueous solution added (0.5 ml to 4.5 ml suspension)
# Description: as §2, §3
smiles,measurement,setting,value
"CC(=O)Nc1ccc(O)c(O)c1O [N-(2,3,4-trihydroxyphenyl)acetamide]",production of apoptotic body,"[1]; Example 6, 18 hours incubation",confirmed
same,activity of growth inhibition of cancer cells,"[2]; 3-fold diluted solution of the HPLC fraction, HL-60",activity of growth inhibition of cancer cells was noted
same,activity of growth inhibition of cancer cells,"[2]; undiluted aqueous solution of the HPLC fraction, HL-60",activity of growth inhibition of cancer cells was noted
"O=CC(=CCc1ccc(O)cc1)c1ccc(O)cc1 [S-1127, 2,4-bis(p-hydroxyphenyl)-2-butenal]",living cell numbers compared with the water-added control section,"[3]; 20 μM added, after incubation of 39 hours",significantly decreased
same,concentration at which cells were killed,"[3]; after incubation of 15 hours, concentration of the aqueous solution added (0.5 ml to 4.5 ml suspension)",≥ 40 µM
same,concentration at which fragmentation of DNA was noted,[4],≥ 20 µM
"COC1=CC(OC)CC1=O (stereo not shown) [MC2, 2,4-dimethoxy-2-cyclopenten-1-one]",apoptotic body under an optical microscope,[1]; final concentration 100 μM,observed
same,growth of the cells,"[2]; 1 mM solution added, final concentration 100 μM, HL-60",inhibited
"CC(=O)N[C@H]1C(O)O[C@H](CO)[C@H](O)[C@@H]1O (stereo partly shown) [N-acetylgalactosamine, reference compound]",growth of the cells versus water-added control section,"[2]; 4 mg/ml added, HL-60",no difference
"O=C1CC(n2ccnc2)C=C1O (stereo not shown) [imidazolylcyclopentenone, 2-hydroxy-4-(1-imidazolyl)-2-cyclopenten-1-one]",concentration at which the growth of HL-60 cells was completely inhibited,"[2]; final concentration, 48 hours incubation, MTT",6.25 µg/mL
